In brackets after ≈: the same amount, converted by molar mass.
Tests used:
[1] = Aqueous solubility of the compound in pH 7.0 phosphate buffer at 2 mg incubated for 72 hrs by shake flask method; type: physicochemical
[2] = Inhibition of bovine brain tubulin polymerization incubated for 30 mins by turbidimetric assay; type: tissue-based, Bos taurus
[3] = system: HeLa; assay: Antiproliferative activity against human HeLa cells assessed as inhibition of cell growth after 72 hrs by XTT assay; type: functional, cell-based
[4] = system: HT-29; assay: Antiproliferative activity against human HT-29 cells assessed as inhibition of cell growth after 72 hrs by XTT assay; type: functional, cell-based; settings: HT-29, 72 h
[5] = system: HL-60; assay: Antiproliferative activity against human HL-60 cells assessed as inhibition of cell growth after 72 hrs by XTT assay; type: functional, cell-based; settings: HL-60, 72 h

Row | solubility thermodynamic at 72 h [1] [µg/mL] | IC50 [2] [µM] | IC50 [3] [µM] | IC50 [4] [µM] | IC50 [5] [µM] | SMILES
1 | 14.8 (≈ 44.6 µM) | > 5 | 0.365 | ≥ 0.01 | 0.257 | CSc1cc(C(=NO)c2ccc3c(ccn3C)c2)cc(Cl)n1
2 | 48.9 (≈ 168 µM) | 1.5 | 0.628 | 0.485 | 0.464 | C=C(c1ccc(OC)cc1)c1cc(Cl)nc(SC)c1
3 | 230 (≈ 646 µM) | > 5 | ≥ 0.01 | ≥ 0.01 | ≥ 0.01 | CSc1cc(C(=O)c2ccc3c(c2)c(C=O)cn3C)cc(SC)n1
4 | 1.1 (≈ 3.3 µM) | 2.1 | 0.269 | 0.781 | 0.213 | CSc1cc(C(=NO)c2ccc(N(C)C)cc2)cc(SC)n1
5 | 1.5 (≈ 4.91 µM) | > 5 | ≥ 10 | ≥ 10 | ≥ 10 | COc1ccc(C(=O)c2cc(SC)nc(SC)c2)cc1

Continued, molecule first:

Row | SMILES | solubility thermodynamic at 72 h [1] [µg/mL] | IC50 [2] [µM] | IC50 [3] [µM] | IC50 [4] [µM] | IC50 [5] [µM]
6 | C=C(c1cc(SC)nc(SC)c1)c1ccc2c(c1)c(C(=O)O)cn2C | 103 (≈ 277 µM) | 4.7 | ≥ 0.01 | ≥ 0.01 | ≥ 0.01
7 | COc1ccc(C(=NO)c2cc(Cl)nc(SC)c2)cc1 | 41.7 (≈ 135 µM) | 4.6 | 0.518 | ≥ 10 | 0.613
8 | C=C(c1cc(SC)nc(SC)c1)c1ccc2ccccc2c1 | 1.9 (≈ 5.87 µM) | > 5 | ≥ 0.01 | ≥ 0.01 | ≥ 0.01
